# Source: patent EP0601187A1, “NOVEL ANTIBIOTIC AND PRODUCTION AND USE THEREOF” (HIGETA SHOYU CO., LTD., priority 1992, dated 1993)
# Numbered stars: 1 amine (or outer) side, 2 acyl side, 3 side chain; on linkers, the order of the positions; unused ones are H or OH. Square brackets hold non-standard residues; d marks the D form. Peptide text beside a SMILES is read from it. Gly(Dodecyl) = CCCCCCCCCCCC[C@H](N)C(=O)O; X1 = CCCCCCCCCCCCC[C@H](N[*:1])C(=O)[*:2]
# How the values were obtained:
# ddy-N mice = test: Acute toxicity test, single intravenous injection; type: in vivo
# Procedure: In the next test, mice of the same kind as mentioned above were used. Each of HUT57A and HUT57B was dissolved in DMSO (dimethylsulfoxide)-castor oil-5 % Glc solution, and the resulting solution was injected to the caudal vein of each of the five male mice once or plural times. For the single injection, the solution was administered to the mice each in an amount of 200 mg per kg of the body weight; and for the plural injections, it was administered to them 14 times each in an amount of 30 mg/kg/day.
# [1] = system: Cryptococcus neoformans IFO1320; conditions: IFO1320, pH 6.8
# [2] = system: Fusarium solani ATCC11712; conditions: ATCC11712, pH 6.8
# [3] = system: Trichophyton mentagrophytes IFO6124; conditions: pH 6.8
# [4] = system: Candida tropicalis IFO3256; conditions: IFO3256, pH 6.8
# [5] = system: Fusarium oxysporum HUT5015; conditions: pH 6.8
# [6] = system: Diaporothe citiri IFO9170; conditions: pH 6.8
# [7] = system: Candida albicans IFM4009, Aspergillus fumigatus Tsukuba No. 12, Cryptococcus neoformans 145A; test: Effectiveness in systemically fungi-infected mice; type: in vivo; conditions: mice intravenously inoculated with clinically isolated strains
# Description: As one example of the test of testing the effectiveness of the active substances, HUT57A or HUT57B may be administered to systemically fungi-infected mice, to which various clinically isolated strains (Candida albicans IFM4009, Aspergillus fumigatus Tsukuba No. 12, Cryptococcus neoformans 145A) were intravenously inoculated, whereby the effectiveness of administered the substance may be examined.
# [8] = system: Aspergillus fumigatus IAM2612; conditions: IAM2612, pH 6.8
# [9] = system: Mucor guilliermondii IFO9403; conditions: pH 6.8
# [10] = system: Botrytis cinerea IFO31831; conditions: pH 6.8
# [11] = system: Aspergillus flavas IAM2044; conditions: pH 6.8
# Candida albicans DUC1001 = test: Antifungal activity in vitro by counting the number of the living cells; type: cell-based; conditions: just after addition at 25, 40 and 80 µg/ml
# [12] = system: Trichosporon cutaneum IFO1500; conditions: pH 6.8
# [13] = system: Trichophyton rubrum IFO9185; conditions: pH 6.8
Structure (SMILES),LD₅₀ by single intravenous injection (ddy-N mice) [mg/kg],MIC [1] [µg/mL],MIC [2] [µg/mL],MIC [3] [µg/mL],MIC [4] [µg/mL],MIC [5] [µg/mL],MIC [6] [µg/mL],effectiveness to systemic mycosis in mice [7],Hemolyzation Activity (Hemolyzation Activity),MIC [8] [µg/mL],MIC [9] [µg/mL],MIC [10] [µg/mL],MIC [11] [µg/mL],number of the living cells (Candida albicans DUC1001),MIC [12] [µg/mL],MIC [13] [µg/mL]
"CCCCCCCCCCCC[C@@H]1NC(=O)[C@H](CCC(N)=O)NC(=O)[C@H](CC(N)=O)NC(=O)[C@H](Cc2ccc(O)cc2)NC(=O)[C@H](CC(N)=O)NC(=O)[C@@H]2CCCN2C(=O)[C@H](CO)NC(=O)[C@H](CC(N)=O)NC1=O [HUT57A, X-Asn-Ser-Pro-Asn-Tyr-Asn-Gln] (cyclo([Gly(Dodecyl)]NSPNYNQ))",≥ 200,6.0,2.8,10.0,11.4,1.2,1.0,effective,-,1.3,1.2,2.2,2.3,noticeably decreased,23.0,6.2
"CCCCCCCCCCCCC[C@@H]1NC(=O)[C@H](CCC(N)=O)NC(=O)[C@H](CC(N)=O)NC(=O)[C@H](Cc2ccc(O)cc2)NC(=O)[C@H](CC(N)=O)NC(=O)[C@@H]2CCCN2C(=O)[C@H](CO)NC(=O)[C@H](CC(N)=O)NC1=O [HUT57B, X-Asn-Ser-Pro-Asn-Tyr-Asn-Gln] (cyclo([X1]NSPNYNQ))",≥ 200,5.2,2.8,10.0,11.2,1.2,1.0,effective,-,1.3,1.2,2.1,2.4,noticeably decreased,23.0,5.4
